Data published in patent US8450527B2, “Amine derivative compounds for treating ophthalmic diseases and disorders” (Acucela Inc., priority 2007, dated 2013).
Counter-ions that a name gives are not always drawn.

Columns and labels:
visual cycle isomerase = molecular target: T1, visual cycle isomerase (Bos taurus, UniProt Q28175); assay: In vitro isomerase inhibition assay, bovine RPE microsome membranes; type: biochemical; conditions: inhibition of 11-cis retinol formation; values given as ranges
T1 construct: Bovine Retinal Pigment Epithelium (RPE) microsome membranes were the source of a visual cycle isomerase; from tissue; host or cells: bovine retinal pigment epithelium microsome membranes; CRALBP made in E. coli
T1 sequence (Q28175 2-533 limits assumed): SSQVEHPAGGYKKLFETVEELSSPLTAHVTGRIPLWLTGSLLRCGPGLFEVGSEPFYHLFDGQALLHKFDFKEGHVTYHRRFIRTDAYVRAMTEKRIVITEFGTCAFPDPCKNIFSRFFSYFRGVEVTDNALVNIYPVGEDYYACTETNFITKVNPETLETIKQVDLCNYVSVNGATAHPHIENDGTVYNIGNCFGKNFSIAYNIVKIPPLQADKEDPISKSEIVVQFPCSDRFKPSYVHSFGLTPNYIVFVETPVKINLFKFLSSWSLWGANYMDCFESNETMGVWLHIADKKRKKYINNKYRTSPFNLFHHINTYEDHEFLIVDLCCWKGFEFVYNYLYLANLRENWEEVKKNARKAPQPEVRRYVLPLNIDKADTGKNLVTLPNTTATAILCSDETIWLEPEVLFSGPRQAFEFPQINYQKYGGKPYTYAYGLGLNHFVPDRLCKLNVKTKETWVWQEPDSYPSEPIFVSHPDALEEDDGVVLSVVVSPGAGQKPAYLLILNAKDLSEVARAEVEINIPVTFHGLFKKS
Experimental: The capability of amine derivative compounds to inhibit the activity of a visual cycle isomerase was determined
Isomerase inhibition reactions were performed essentially as described (Stecher et al., J. Biol. Chem. 274:8577-85 (1999); see also Golczak et al., Proc. Natl. Acad. Sci. USA 102:8162-67 (2005)). Bovine Retinal Pigment Epithelium (RPE) microsome membranes were the source of a visual cycle isomerase.
Bovine RPE microsome membrane extracts were prepared according to methods described (Golczak et al., Proc. Natl. Acad. Sci. USA 102:8162-67 (2005)) and stored at −80° C. Crude RPE microsome extracts were thawed in a 37° C. water bath, and then immediately placed on ice. 50 ml crude RPE microsomes were placed into a 50 ml Teflon-glass homogenizer (Fisher Scientific, catalog no. 0841416M) on ice, powered by a hand-held DeWalt drill, and homogenized ten times upand down on ice under maximum speed. This process was repeated until the crude RPE microsome solution was homogenized. The homogenate was then subjected to centrifugation (50.2 Ti rotor (Beckman, Fullerton, Calif.), 13,000 RPM; 15360 Rcf) for 15 minutes at 4° C. The supernatant was collected and subjected to centrifugation at 42,000 RPM (160,000 Rcf; 50.2 Ti rotor) for 1 hour at 4° C. The supernatant was removed, and the pellets were suspended in 12 ml (final volume) cold 10 mM MOPS buffer, pH 7.0. The resuspended RPE membranes in 5 ml aliquots were homogenized in a glass-to-glass homogenizer (Fisher Scientific, catalog no.K885500-0021) to high homogeneity. Protein concentration was quantified using the BCA protein assay according to the manufacturer's protocol (Pierce, Rockford, Ill.). The homogenized RPE preparations were stored at −80° C.
Recombinant human apo cellular retinaldehyde-binding protein (CRALBP) was cloned and expressed according to standard methods in the molecular biology art (see Crabb et al., Protein Science 7:746-57 (1998); Crabb et al., J. Biol. Chem. 263:18688-92 (1988)). Briefly, total RNA was prepared from confluent ARPE^19 cells (American Type Culture Collection, Manassas, Va.), cDNA was synthesized using an oligo(dT)12-18 primer, and then DNA encoding CRALBP was amplified by two sequential polymerase chain reactions (see Crabb et al., J. Biol. Chem. 263:18688-92 (1988); Intres, et al., J. Biol. Chem. 269:25411-18 (1994); GenBank Accession No. L34219.1). The PCR product was sub-cloned into pTrcHis2-TOPO TA vector according to the manufacturer's protocol (Invitrogen Inc., Carlsbad, Calif.; catalog no. K4400-01), and then the sequence was confirmed according to standard nucleotide sequencing techniques. Recombinant 6×His-tagged human CRALBP was expressed in One Shot TOP 10 chemically competent E. coli cells (Invitrogen), and the recombinant polypeptide was isolated from E. coli cell lysates by nickel affinity chromatography using nickel (Ni) Sepharose XK16-20 columns for HPLC (Amersham Bioscience, Pittsburgh, Pa.; catalog no.17-5268-O2). The purified 6×His-tagged human CRALBP was dialyzed against 10 mM bis-tris-Propane (BTP) and analyzed by SDS-PAGE. The molecular weight of the recombinant human CRALBP was approximately 39 kDal.
Amine derivative compounds and control compounds were reconstituted in ethanol to 0.1 M. Ten-fold serial dilutions (10^−2, 10^−3, 10^−4, 10^−5, 10^−6 M) in ethanol of each compound were prepared for analysis in the isomerase assay.
The isomerase assay was performed in 10 mM bis-tris-propane (BTP) buffer, pH 7.5, 0.5% BSA (diluted in BTP buffer), 1 mM sodium pyrophosphate, 20 μM all-trans retinol (in ethanol), and 6 μM apo-CRALBP. The test compounds (2 μl) (final 1/15 dilution of serial dilution stocks) were added to the above reaction mixture to which RPE microsomes were added. The same volume of ethanol was added to the control reaction (absence of test compound). Bovine RPE microsomes (9 μl) (see above) were then added, and the mixtures transferred to 37° C. to initiate the reaction (total volume=150 μl). […]

[1] = system: retinoid nuclear receptors (RAR and RxR); assay: Retinoid nuclear receptor activity

Structure (SMILES)	IC50 (visual cycle isomerase)	further results
Cc1cccc(C)c1CCc1cccc(CCCN)c1 (as salt: hydrochloride) [Example 1, 3-(3-(2,6-dimethylphenethyl)phenyl)propan-1-amine]	–	melting point: 106 to 108 °C
CCC(O)(CC)CCc1cccc(CCCN)c1 [Example 2, 1-(3-(3-aminopropyl)phenyl)-3-ethylpentan-3-ol]	≤ 1 µM	–
CC(C)(O)CCc1cccc(CCCN)c1 [Example 4, 4-(3-(3-Aminopropyl)phenyl)-2-methylbutan-2-ol]	1 to 10 µM	–
COCCCc1cccc(CCCN)c1 [Example 5, 3-(3-(3-Methoxypropyl)phenyl)propan-1-amine]	1 to 10 µM	–
NCCCc1cccc(CCCO)c1 [Example 6, 3-(3-(3-aminopropyl)phenyl)propan-1-ol]	10 to 100 µM	–
CCCC(O)CCc1cccc(CCCN)c1 (stereo not drawn) [Example 8, 1-(3-(3-aminopropyl)phenyl)hexan-3-ol]	1 to 10 µM	–
NCCOc1cccc(CCCCCCO)c1 [Example 13, 6-(3-(2-aminoethoxy)phenyl)hexan-1-ol]	≤ 1 µM	–
NCCOc1cccc(CCCC2CCCC2)c1 [Example 14, 2-(3-(3-cyclopentylpropyl)phenoxy)ethanamine]	≤ 1 µM	–
NCCC(O)c1cccc(CCCc2ccccc2)c1 (stereo not drawn) [Example 18, 3-amino-1-(3-(3-phenylpropyl)phenyl)propan-1-ol]	≤ 1 µM	–
NCCCc1cccc(CCc2ccc3ccccc3c2)c1 [Example 21, 3-(3-(2-(naphthalen-2-yl)ethyl)phenyl)propan-1-amine]	10 to 100 µM	–
NCCCc1cccc(CCc2ccccc2)c1 [Example 22, 3-(3-phenethylphenyl)propan-1-amine]	1 to 10 µM	–
NCCCc1cccc(CCCCO)c1 [Example 23, 4-(3-(3-aminopropyl)phenyl)butan-1-ol]	10 to 100 µM	–
NCCCc1cccc(CCC2CCCC2)c1 [Example 24, 3-(3-(2-cyclopentylethyl)phenyl)propan-1-amine]	≤ 1 µM	–
NCCCc1cccc(CCC2CCCCC2)c1 [Example 25, 3-(3-(2-cyclohexylethyl)phenyl)propan-1-amine]	≤ 1 µM	–
NCCCc1cccc(CCCc2ccccc2)c1 [Example 26, 3-(3-(3-phenylpropyl)phenyl)propan-1-amine]	≤ 1 µM	–
CCCCCCc1cccc(CCCN)c1 [Example 28, 3-(3-hexylphenyl)propan-1-amine]	≤ 1 µM	–
NCCCc1cccc(CCCCCCO)c1 [Example 30, 6-(3-(3-aminopropyl)phenyl)hexan-1-ol]	≤ 1 µM	–
Cc1ccccc1CCc1cccc(CCCN)c1 [Example 31, 3-(3-(2-methylphenethyl)phenyl)propan-1-amine]	1 to 10 µM	–
NCCCc1cccc(CCc2cccc(-c3ccccc3)c2)c1 [Example 32, 3-(3-(2-(Biphenyl-3-yl)ethyl)phenyl)propan-1-amine]	10 to 100 µM	–
COCCCCCCc1cccc(CCCN)c1 [Example 33, 3-(3-(6-methoxyhexyl)phenyl)propan-1-amine]	≤ 1 µM	–
CCCCC(CCCC)c1cccc(CCCN)c1 [Example 34]	1 to 10 µM	–
NCCOc1cccc(CCc2cccnc2)c1 [Example 36, 2-(3-(2-(pyridin-3-yl)ethyl)phenoxy)ethanamine]	1 to 10 µM	–
NCCOc1cccc(CCc2ccccn2)c1 [Example 37, 2-(3-(2-(pyridin-2-yl)ethyl)phenoxy)ethanamine]	1 to 10 µM	–
NCCOc1cccc(CCc2cccs2)c1 [Example 38, 2-(3-(2-(thiophen-2-yl)ethyl)phenoxy)ethanamine]	≤ 1 µM	–
Cc1cccc(C)c1NC(=O)c1cccc(CCCN)c1 [Example 166, 3-(3-aminopropyl)-N-(2,6-dimethylphenyl)benzamide]	100 to 1000 µM	–
C/C(=C\c1ccc(C(=O)O)cc1)c1ccc2c(c1)C(C)(C)CCC2(C)C [TTNPB, E-4-[2-(5,6,7,8-tetrahydro-5,5,8,8-tetramethyl-2-naphthylenyl)-1-propenyl]benzoic acid, reference compound]	–	effects on retinoid nuclear receptors (RAR and RxR) [1]: activated
CC1=C(/C=C/C(C)=C/C=C/C(C)=C/C(=O)O)C(C)(C)CCC1 [at-RA, All-trans-retinoic acid, reference compound]	–	effects on retinoid nuclear receptors (RAR and RxR) [1]: activated
